Here are results for five molecules from ChEMBL document CHEMBL3525951, “Reevaluation of the microsomal metabolism of montelukast: major contribution by CYP2C8 at clinically relevant concentrations” (Drug Metab Dispos, 2011).

One series has as its system Liver microsome. The experiment in a line: Drug level in human liver microsomes treated with montelukast at 0.02 to 0.4 uM preincubated for 3 mins followed by beta-NADPH addition by LC-MS analysis. The format is ADME. On the technique in general: Microsomes from liver hold many membrane-bound enzymes, among them those of drug oxidation.
The target in series [1] is T1, Cytochrome P450 2C8 (Homo sapiens, UniProt P10632).
T1 sequence (P10632 whole entry): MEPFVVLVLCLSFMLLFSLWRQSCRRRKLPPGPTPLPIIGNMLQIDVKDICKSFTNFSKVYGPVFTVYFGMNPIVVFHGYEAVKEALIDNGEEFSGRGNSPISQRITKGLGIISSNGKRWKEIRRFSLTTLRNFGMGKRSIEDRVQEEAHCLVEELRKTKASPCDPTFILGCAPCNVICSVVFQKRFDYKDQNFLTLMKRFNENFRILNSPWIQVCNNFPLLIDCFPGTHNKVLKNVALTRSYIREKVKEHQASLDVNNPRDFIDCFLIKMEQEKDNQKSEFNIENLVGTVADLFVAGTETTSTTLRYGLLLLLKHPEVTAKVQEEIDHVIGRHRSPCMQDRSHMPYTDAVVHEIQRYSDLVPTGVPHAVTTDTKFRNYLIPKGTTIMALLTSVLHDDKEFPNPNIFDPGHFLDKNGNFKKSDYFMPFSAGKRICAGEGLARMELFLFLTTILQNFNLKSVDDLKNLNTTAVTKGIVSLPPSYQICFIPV
In words: Activity of recombinant human CYP2C8 expressed in microsomes isolated from baculovirus infected insect cell assessed as enzyme-mediated compound formation treated with montelukast at 0.02 to 1 uM after 60 mins by LC-MS analysis. The format is ADME. To be noted: 1 h.

The next series concerns the target Cytochrome P450 3A4 (Homo sapiens, UniProt P08684). The experiment in a line: Activity of recombinant human CYP3A4 expressed in microsomes isolated from baculovirus infected insect cell assessed as enzyme-mediated compound formation treated with montelukast at 1 uM after 60 mins by LC-MS analysis. The format is ADME. The note with it: 1 h.
The next series deals with Cytochrome P450 2C9 (Homo sapiens, UniProt P11712). In words: Activity of recombinant human CYP2C9 expressed in microsomes isolated from baculovirus infected insect cell assessed as enzyme-mediated compound formation treated with montelukast at 1 uM after 60 mins by LC-MS analysis. It counts as ADME. The note with it: 1 h.
Another series has as its target Cytochrome P450 3A5 (Homo sapiens, UniProt P20815). The experiment in a line: Activity of recombinant human CYP3A5 expressed in microsomes isolated from baculovirus infected insect cell assessed as enzyme-mediated compound formation treated with montelukast at 1 uM after 60 mins by LC-MS analysis. The note with it: 1 h. The format is ADME.
A further series concerns the target Cytochrome P450 2C19 (Homo sapiens, UniProt P33261). In words: Activity of recombinant human CYP2C19 expressed in microsomes isolated from baculovirus infected insect cell assessed as enzyme-mediated compound formation treated with montelukast at 1 uM after 60 mins by LC-MS analysis. It counts as ADME. To be noted: 1 h.
Series [2] concerns the target T1, Cytochrome P450 2C8. In words: Activity of recombinant human CYP2C8 expressed in microsomes isolated from baculovirus infected insect cell assessed as enzyme-mediated compound formation treated with montelukast at 0.02 to 0.1 uM after 3 mins by LC-MS analysis. It counts as ADME. The note with it: 0.05 h.
Series [3] deals with T1, Cytochrome P450 2C8. In words: Activity of recombinant human CYP2C8 expressed in microsomes isolated from baculovirus infected insect cell assessed as enzyme-mediated compound formation treated with 2-(1-(((1R)-1-(3-(2-(7-chloroquinolin-2-yl)vinyl)phenyl)-3-(2-(1,2-dihydroxypropan-2-yl)phenyl)propylthio)methyl)cyclopropyl)acetic acid at 0.02 uM after 30 mins by LC-MS analysis. It counts as ADME. To be noted: 0.5 h.

Substrate in series [4]: CC(C)(O)c1ccccc1CC[C@@H](SCC1(CC(=O)O)CC1)c1cccc(/C=C/c2ccc3ccc(Cl)cc3n2)c1
The experiment in a line: cells, lysate or membranes named.

Cytochrome P450 3A5, sequence (P20815 whole entry): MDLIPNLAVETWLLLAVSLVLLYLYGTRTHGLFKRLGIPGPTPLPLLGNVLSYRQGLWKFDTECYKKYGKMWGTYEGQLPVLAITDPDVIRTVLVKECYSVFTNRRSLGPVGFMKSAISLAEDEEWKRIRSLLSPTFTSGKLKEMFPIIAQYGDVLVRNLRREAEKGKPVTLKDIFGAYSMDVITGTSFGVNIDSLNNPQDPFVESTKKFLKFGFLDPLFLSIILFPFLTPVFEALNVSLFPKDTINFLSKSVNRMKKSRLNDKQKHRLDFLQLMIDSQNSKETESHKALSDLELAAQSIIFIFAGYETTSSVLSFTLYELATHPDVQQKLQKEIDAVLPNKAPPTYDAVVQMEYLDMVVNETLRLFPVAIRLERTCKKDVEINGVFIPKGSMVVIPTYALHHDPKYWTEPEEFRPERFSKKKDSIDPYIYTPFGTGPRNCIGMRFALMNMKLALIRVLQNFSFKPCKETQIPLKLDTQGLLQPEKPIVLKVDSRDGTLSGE
Cytochrome P450 3A4, sequence (P08684 whole entry): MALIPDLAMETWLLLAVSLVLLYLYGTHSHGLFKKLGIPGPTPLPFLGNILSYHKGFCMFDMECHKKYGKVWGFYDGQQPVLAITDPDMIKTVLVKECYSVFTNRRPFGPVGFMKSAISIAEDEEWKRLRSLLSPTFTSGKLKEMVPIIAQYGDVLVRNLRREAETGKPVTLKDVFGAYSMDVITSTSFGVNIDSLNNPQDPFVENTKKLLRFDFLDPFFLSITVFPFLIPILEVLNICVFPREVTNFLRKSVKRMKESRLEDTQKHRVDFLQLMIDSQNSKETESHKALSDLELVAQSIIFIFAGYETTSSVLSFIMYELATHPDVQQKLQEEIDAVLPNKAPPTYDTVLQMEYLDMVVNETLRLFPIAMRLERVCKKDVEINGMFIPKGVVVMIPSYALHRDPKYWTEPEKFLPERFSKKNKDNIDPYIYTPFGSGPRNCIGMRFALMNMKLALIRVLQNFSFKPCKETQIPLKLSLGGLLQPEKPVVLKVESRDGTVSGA
Cytochrome P450 2C19, sequence (P33261 whole entry): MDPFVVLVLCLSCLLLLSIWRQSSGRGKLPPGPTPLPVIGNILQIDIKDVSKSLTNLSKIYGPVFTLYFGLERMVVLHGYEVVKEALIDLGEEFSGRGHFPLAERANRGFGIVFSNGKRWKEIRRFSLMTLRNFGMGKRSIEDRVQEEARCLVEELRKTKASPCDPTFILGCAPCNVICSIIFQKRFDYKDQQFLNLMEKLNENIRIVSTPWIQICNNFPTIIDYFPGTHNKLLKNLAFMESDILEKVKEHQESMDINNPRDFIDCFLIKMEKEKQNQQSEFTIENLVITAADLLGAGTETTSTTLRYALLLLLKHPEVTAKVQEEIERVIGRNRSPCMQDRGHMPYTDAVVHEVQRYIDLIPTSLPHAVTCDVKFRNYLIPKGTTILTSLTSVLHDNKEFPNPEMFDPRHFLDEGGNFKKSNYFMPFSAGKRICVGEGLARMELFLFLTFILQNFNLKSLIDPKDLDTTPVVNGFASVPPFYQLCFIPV

`CC(C)(O)c1ccccc1CC[C@H](c1cccc(/C=C/c2ccc3ccc(Cl)cc3n2)c1)[S+]([O-])CC1(CC(=O)O)CC1` (stereo not given in full): the Drug metabolism entry with Liver microsome is listed as “metabolite_detected”.
`CC(C)(O)c1cc(O)ccc1CC[C@@H](SCC1(CC(=O)O)CC1)c1cccc(/C=C/c2ccc3ccc(Cl)cc3n2)c1`: the Drug metabolism entry in the series with Liver microsome, on Cytochrome P450 2C8 [1], at Cytochrome P450 3A4, at Cytochrome P450 2C9, at Cytochrome P450 3A5 and on Cytochrome P450 2C19 was “metabolite_detected” in each case. Moreover, the Drug metabolism entry at Cytochrome P450 2C8 [2] is “metabolite_detected”.
Regarding `CC(O)(C(=O)O)c1ccccc1CC[C@@H](SCC1(CC(=O)O)CC1)c1cccc(/C=C/c2ccc3ccc(Cl)cc3n2)c1` (stereo not given in full), the Drug metabolism result in the series on Liver microsome and at Cytochrome P450 2C8 [3] was “metabolite_detected” in each case.
Consider `CC(C)(O)c1ccccc1C(O)C[C@@H](SCC1(CC(=O)O)CC1)c1cccc(/C=C/c2ccc3ccc(Cl)cc3n2)c1` (stereo not given in full), for which the Drug metabolism entry in the series with Liver microsome, at Cytochrome P450 3A4 and on Cytochrome P450 3A5 was “metabolite_detected” throughout.

B1: Cytochrome P450 2C9 (Homo sapiens) (protein)
chain: MDSLVVLVLCLSCLLLLSLWRQSSGRGKLPPGPTPLPVIGNILQIGIKDISKSLTNLSKVYGPVFTLYFGLKPIVVLHGYEAVKEALIDLGEEFSGRGIFPLAERANRGFGIVFSNGKKWKEIRRFSLMTLRNFGMGKRSIEDRVQEEARCLVEELRKTKASPCDPTFILGCAPCNVICSIIFHKRFDYKDQQFLNLMEKLNENIKILSSPWIQICNNFSPIIDYFPGTHNKLLKNVAFMKSYILEKVKEHQESMDMNNPQDFIDCFLMKMEKEKHNQPSEFTIESLENTAVDLFGAGTETTSTTLRYALLLLLKHPEVTAKVQEEIERVIGRNRSPCMQDRSHMPYTDAVVHEVQRYIDLLPTSLPHAVTCDIKFRNYLIPKGTTILISLTSVLHDNKEFPNPEMFDPHHFLDEGGNFKKSKYFMPFSAGKRICVGEALAGMELFLFLTSILQNFNLKSLVDPKNLDTTPVVNGFASVPPFYQLCFIPV
B1: in series [4], the Michaelis-Menten constant (Km) – broadly, the substrate concentration at which the rate is half of its maximum – came to 0.19 µM and the maximal velocity (Vmax) (as a rule, the rate approached at saturating substrate) was 1.1e-07 µmol/min.
